Active and inactive are the calls of the source. No cut-off for these calls is given here. Bounds are passed on as bounds.

The values that follow come from ChEMBL document CHEMBL4229381, “New cytokinin derivatives possess UVA and UVB photoprotective effect on human skin cells and prevent oxidative stress” (Eur J Med Chem, 2018).

Series [1] has as its system NHDF. Briefly: Cytoprotection against phototoxicity in human NHDF cells assessed as increase in cell viability at 3.9 to 31.3 uM preincubated for 60 mins followed by 7.5 J/cm2 UVA irradiation and measured after 24 hrs by neutral red uptake assay. It is filed as functional, cell-based.
In series [2] the test system is NHDF. Description: Cytoprotection against phototoxicity in human NHDF cells assessed as increase in cell viability at 3.9 to 31.3 uM preincubated for 60 mins followed by 150 mJ/cm2 UVB irradiation and measured after 24 hrs by neutral red uptake assay. It is filed as functional, cell-based.
The nature of series [3]: Antioxidant activity assessed as trolox equivalent of AAPH-induced radical scavenging activity at 1 uM pretreated for 15 mins followed by […] challenge measured every 3 mins over 90 mins by ORAC-FL assay. It is filed as functional.
The test system of a further series is Nicotiana tabacum. Description: Growth promoting activity in tobacco callus assessed as callus weight at 10^-5 mol/L after 4 weeks relative to control. It is filed as functional.
The subject of series [4] is Amaranthus caudatus. Briefly: Growth promoting activity in Amaranthus caudatus var. atropurpurea seeds by measuring betacyanin at 10^-5 mol/L after 48 hrs relative to control. The series is classed as functional.
A further series has as its system Triticum aestivum. Briefly: Anti-senescent activity in leaf of Triticum aestivum cv. Hereward seedlings by measuring chlorophyll retention at 10^-4 mol/L after 4 days relative to control. It is filed as functional.
Series [5] relates to HaCaT. Briefly: Cytotoxicity in human HaCaT cells assessed as reduction in cell viability at 50 uM after 24 hrs by resazurin dye-based fluorescence assay relative to control.
The next series concerns BJ. Description: Cytotoxicity in human BJ cells assessed as reduction in cell viability at 50 uM after 24 hrs by resazurin dye-based fluorescence assay relative to control. Background: The colour change of resazurin is a common sign of viable cells or microbes.
Series [6] is described as follows: Cytotoxicity in human NHDF cells assessed as cell viability at 3.9 uM after 24 hrs by neutral red uptake assay relative to control. It is filed as cell-based. The note with it: read-out: Activity.
A short description of series [7]: Cytotoxicity in human NHDF cells assessed as cell viability at 7.8 uM after 24 hrs by neutral red uptake assay relative to control. The series is classed as cell-based. The note with it: read-out: Activity.
Series [8] is described as follows: Cytotoxicity in human NHDF cells assessed as cell viability at 15.6 uM after 24 hrs by neutral red uptake assay relative to control. It is filed as cell-based. The settings on record: read-out: Activity.
Series [9] is described as follows: Cytotoxicity in human NHDF cells assessed as cell viability at 31.3 uM after 24 hrs by neutral red uptake assay relative to control. It is filed as cell-based. The settings on record: read-out: Activity.
A short description of series [10]: Cytotoxicity in human NHDF cells assessed as cell viability at 62.5 uM after 24 hrs by neutral red uptake assay relative to control. It is filed as cell-based. The note with it: read-out: Activity.
A short description of series [11]: Cytotoxicity in human NHDF cells assessed as cell viability at 125 uM after 24 hrs by neutral red uptake assay relative to control. It is filed as cell-based. The settings on record: read-out: Activity.
Series [12] can be described thus: Phototoxicity in human NHDF cells assessed as cell viability at 3.9 uM preincubated for 60 mins followed by 5 J/cm2 UVA irradiation and measured after 24 hrs by neutral red uptake assay relative to control. It is filed as cell-based. The note with it: read-out: Activity.
Series [13] in a line: Phototoxicity in human NHDF cells assessed as cell viability at 7.8 uM preincubated for 60 mins followed by 5 J/cm2 UVA irradiation and measured after 24 hrs by neutral red uptake assay relative to control. The settings on record: read-out: Activity. It is filed as cell-based.
Series [14] is described as follows: Phototoxicity in human NHDF cells assessed as cell viability at 15.6 uM preincubated for 60 mins followed by 5 J/cm2 UVA irradiation and measured after 24 hrs by neutral red uptake assay relative to control. It is filed as cell-based. The settings on record: read-out: Activity.
Series [15] is described as follows: Phototoxicity in human NHDF cells assessed as cell viability at 31.3 uM preincubated for 60 mins followed by 5 J/cm2 UVA irradiation and measured after 24 hrs by neutral red uptake assay relative to control. The series is classed as cell-based. The settings on record: read-out: Activity.
Series [16] is described as follows: Phototoxicity in human NHDF cells assessed as cell viability at 62.5 uM preincubated for 60 mins followed by 5 J/cm2 UVA irradiation and measured after 24 hrs by neutral red uptake assay relative to control. The series is classed as cell-based. The note with it: read-out: Activity.
Series [17] is described as follows: Phototoxicity in human NHDF cells assessed as cell viability at 125 uM preincubated for 60 mins followed by 5 J/cm2 UVA irradiation and measured after 24 hrs by neutral red uptake assay relative to control. The series is classed as cell-based. The settings on record: read-out: Activity.
A short description of series [18]: Cytotoxicity in human HaCaT cells assessed as cell viability at 3.9 uM after 24 hrs by neutral red uptake assay relative to control. The note with it: read-out: Activity. The series is classed as cell-based.
A short description of series [19]: Cytotoxicity in human HaCaT cells assessed as cell viability at 7.8 uM after 24 hrs by neutral red uptake assay relative to control. It is filed as cell-based. The settings on record: read-out: Activity.
Series [20] in a line: Cytotoxicity in human HaCaT cells assessed as cell viability at 15.6 uM after 24 hrs by neutral red uptake assay relative to control. The series is classed as cell-based. The settings on record: read-out: Activity.
Series [21] is described as follows: Cytotoxicity in human HaCaT cells assessed as cell viability at 31.3 uM after 24 hrs by neutral red uptake assay relative to control. It is filed as cell-based. The settings on record: read-out: Activity.
Series [22] can be described thus: Cytotoxicity in human HaCaT cells assessed as cell viability at 62.5 uM after 24 hrs by neutral red uptake assay relative to control. It is filed as cell-based. The settings on record: read-out: Activity.
Series [23] in a line: Cytotoxicity in human HaCaT cells assessed as cell viability at 125 uM after 24 hrs by neutral red uptake assay relative to control. The series is classed as cell-based. The note with it: read-out: Activity.
Series [24] is described as follows: Phototoxicity in human HaCaT cells assessed as cell viability at 3.9 uM preincubated for 60 mins followed by 7.5 J/cm2 UVA irradiation and measured after 24 hrs by neutral red uptake assay relative to control. The series is classed as cell-based. The note with it: read-out: Activity.
Series [25] can be described thus: Phototoxicity in human HaCaT cells assessed as cell viability at 7.8 uM preincubated for 60 mins followed by 7.5 J/cm2 UVA irradiation and measured after 24 hrs by neutral red uptake assay relative to control. The series is classed as cell-based. The settings on record: read-out: Activity.
Series [26] can be described thus: Phototoxicity in human HaCaT cells assessed as cell viability at 15.6 uM preincubated for 60 mins followed by 7.5 J/cm2 UVA irradiation and measured after 24 hrs by neutral red uptake assay relative to control. The series is classed as cell-based. The note with it: read-out: Activity.
The nature of series [27]: Phototoxicity in human HaCaT cells assessed as cell viability at 31.3 uM preincubated for 60 mins followed by 7.5 J/cm2 UVA irradiation and measured after 24 hrs by neutral red uptake assay relative to control. The series is classed as cell-based. The note with it: read-out: Activity.
Series [28] is described as follows: Phototoxicity in human HaCaT cells assessed as cell viability at 62.5 uM preincubated for 60 mins followed by 7.5 J/cm2 UVA irradiation and measured after 24 hrs by neutral red uptake assay relative to control. The series is classed as cell-based. The settings on record: read-out: Activity.
The nature of series [29]: Phototoxicity in human HaCaT cells assessed as cell viability at 125 uM preincubated for 60 mins followed by 7.5 J/cm2 UVA irradiation and measured after 24 hrs by neutral red uptake assay relative to control. It is filed as cell-based. The settings on record: read-out: Activity.
For series [30], the system named is HaCaT. Description: Cytoprotection against phototoxicity in human HaCaT cells assessed as increase in cell viability at 3.9 uM preincubated for 60 mins followed by 10 J/cm2 UVA irradiation and measured after 24 hrs by neutral red uptake assay. It is filed as functional, cell-based.
Series [31] has as its system HaCaT. Description: Cytoprotection against phototoxicity in human HaCaT cells assessed as increase in cell viability at 3.9 to 31.3 uM preincubated for 60 mins followed by 150 mJ/cm2 UVB irradiation and measured after 24 hrs by neutral red uptake assay. The series is classed as functional, cell-based.
Series [32] relates to HaCaT. Description: Potency index, ratio of compound effect to rosmarinic acid effect for cytoprotection against phototoxicity in human HaCaT cells assessed as increase in cell viability at 3.9 uM preincubated for 60 mins followed by 150 mJ/cm2 UVB irradiation and measured after 24 hrs by neutral red uptake assay. The series is classed as functional.
In series [33] the test system is Amaranthus caudatus. Description: Growth promoting activity in Amaranthus caudatus var. atropurpurea seeds by measuring betacyanin at 10^-4 mol/L after 48 hrs relative to control. It is filed as functional.
In series [34] the test system is HaCaT. Briefly: Potency index, ratio […] for cytoprotection against phototoxicity in human HaCaT cells assessed as increase in cell viability at 3.9 preincubated for 60 mins followed by 150 mJ/cm2 UVB irradiation and measured after 24 hrs by neutral red uptake assay. The series is classed as functional.
The subject of series [35] is NHDF. Description: Phototoxicity in human NHDF cells assessed as reduction in cell viability preincubated for 60 mins followed by 5 J/cm2 UVA irradiation and measured after 24 hrs by neutral red uptake assay. The series is classed as cell-based. The note with it: light or radiation study.
In series [36] the test system is HaCaT. Briefly: Phototoxicity in human HaCaT cells assessed as reduction in cell viability preincubated for 60 mins followed by 7.5 J/cm2 UVA irradiation and measured after 24 hrs by neutral red uptake assay. The settings on record: light or radiation study. It is filed as cell-based.

`c1coc(CNc2ncnc3[nH]cnc23)c1` [KINETIN]: the result with NHDF [1] and in the series with NHDF [2] was Active. Also, the Activity was found to be 0.71 equiv in series [3], 101% with Nicotiana tabacum, 68% with Amaranthus caudatus [4] and 98% in the series on Triticum aestivum.
Turning to `Clc1nc(NCC2CCCO2)c2ncn(C3CCCO3)c2n1` (stereo not drawn), the Activity in the series on HaCaT [5] was below 10%; with BJ it was below 10%; in series [3] it was below 0.05 equiv; in the series on Nicotiana tabacum, 104%; with Amaranthus caudatus [33], 83%; in the series on Triticum aestivum, 111%. For the same compound, the viability at 24 h, 3.9 µM in [6] was 103%; in series [12], 100%; in series [18], 104%; in series [24] it was 105%. In addition, the viability at 24 h, 7.8 µM in series [7] worked out at 103%; in series [13], 103%; in series [19], 103%; in series [25] it was 112%. Besides, the viability at 24 h, 15.6 µM in series [8] came to 101%; in series [14], 100%; in series [20], 104%; in series [26], 110%. Further, the viability at 24 h, 31.3 µM was found to be 106% in series [9], 103% in [15], 109% in [21] and 121% in [27]. Moreover, the viability at 24 h, 62.5 µM in series [10] worked out at 102%; in [16], 105%; in series [22], 111%; in series [28] it was 126%. Also, the viability at 24 h, 125 µM in series [11] is 104%; in [17], 105%; in series [23], 111%; in series [29] it was 126%. Besides, the outcome with HaCaT [30] was inactive. Besides, the result with HaCaT [31] and with NHDF [2] was Active. Also, the Ratio in the series on HaCaT [32] and in the series with HaCaT [34] was above 2 throughout.
Broadly, the IC50 is the midpoint of a concentration-inhibition curve. As for `CN(C)CCCN1c2ccccc2Sc2ccc(Cl)cc21` [CHLORPROMAZINE], the IC50 stood at 25.5 µM with NHDF [35] and 36.1 µM with HaCaT [36].
